Columns and labels:
MRSA keratitis isolates = MRSA keratitis isolates collected between 1993 and 2012; cited from earlier work
S. aureus strain UAMS-1 = format: cell-based, Staphylococcus aureus; conditions: 1×MIC, laser microbial growth monitor over 40 hours
Method: (§1) Spontaneous resistance to the indicated test agent(s) was measured for P. aeruginosa strain PA01 and S. aureus strain UAMS-1 using two liquid culture approaches. […] Growth was measured using the BacterioScan s216Dx laser microbial growth monitor, with optical measurements taken every 3 minutes over 40 hours. Following 40 hours, samples were plated for to measure viable colony forming units and re-tested for drug susceptibility.
(§2) To determine if these colonies represented untreated cells vs. resistant cells, 8 individual colonies from each treatment condition were randomly selected and tested for MICs.
(§3) Using an automated laser microbial growth monitor, the optical profiles of these cultures were measured continuously over time. […] Again 8 colonies were selected at random from each treatment group.

[1] = test system: P. aeruginosa strain PA01; format: cell-based, Pseudomonas aeruginosa
Method: as §1, §2, §3

P. aeruginosa [2] = assay: MIC of clinical P. aeruginosa ocular isolates (antibiotic susceptibility profiles); format: cell-based, Pseudomonas aeruginosa; conditions: Pseudomonas aeruginosa, read-out: Minimum Inhibitory Concentration
Excerpt: A series of genotyping and biological assays were used as a preliminary means to evaluate the clonality of clinical P. aeruginosa isolates collected, as follows. Genomic DNA was purified from each isolate using Qiagen DNeasy kits (Hilden, Germany) and used as a template for polymerase chain reactions to detect the presence of the virulence factors exoS, exoY, exoU, exoT, and perV using previously published primers (Table 1). See Allewelt M, Coleman F T, Grout M, Priebe G P, Pier G B. Acquisition of expression of the Pseudomonas aeruginosa ExoU cytotoxin leads to increased bacterial virulence in a murine model of acute pneumonia and systemic spread. Infection and immunity 2000; 68:3998-4004, Lomholt J A, Poulsen K, Kilian M. Epidemic population structure of Pseudomonas aeruginosa: evidence for a clone that is pathogenic to the eye and that has a distinct combination of virulence factors. Infection and immunity 2001; 69, and Ledbetter E C, Mun J J, Kowbel D, Fleiszig S M. Pathogenic phenotype and genotype of Pseudomonas aeruginosa isolates from spontaneous canine ocular infections. Investigative ophthalmology & visual science 2009; 50. […] See Institute C. Performance Standards for Antimicrobial Susceptibility Testing: Twenty-fifth Informational Supplement. Each isolate's ability to form biofilms was quantified. To do so, wells of a polystyrene plate containing 72-hour established biofilms were washed with 0.8% NaCl to remove non adherent cells and stained with crystal violet. To quantify biofilm staining, plates were washed 3 times with H2O, stain was suspended in 30% glacial acetic acid and the optical density (OD600nm) of each well was determined using an automated plate reader, as previously described. See Jacobs A C, Blanchard C E, Catherman S C, Dunman P M, Murata Y. An ribonuclease T2 family protein modulates Acinetobacter baumannii abiotic surface colonization. PloS one 2014; 9.

[3] = test system: planktonic P. aeruginosa cells; assay: Antimicrobial kill curves; format: cell-based, Pseudomonas aeruginosa; conditions: 2× MIC, 4 hours post-treatment
Method: Overnight cultures of the indicated organism were used to inoculate (1:100 dilution) 100 ml of fresh media and grown to mid-exponential phase. […] Aliquots were taken at 1, 2, 3, 4, and 24 hours, serial diluted and plated for colony forming units.

[4] = test system: S. aureus UAMS-1 biofilms; assay: Biofilm susceptibility; format: cell-based, Staphylococcus aureus; conditions: established S. aureus biofilm, 24 hrs treatment, 32×MIC
Excerpt: Bacterial strains used in these studies include the conventional laboratory strains Pseudomonas aeruginosa PA01 and Staphylococcus aureus UAMS-1, both of which are antibiotic susceptible and capable of forming robust biofilms. See […], Thomas J R, Nelson […]. Role of the accessory gene regulator (agr) in pathogenesis of staphylococcal osteomyelitis. Infection and immunity 1995; 63:3373-3380. Seven clinical keratitis isolates of Pseudomonas aeruginosa, were collected from the Flaum Eye Institute, Rochester N.Y. and 25 clinical isolates of Staphylococcus aureus from geographically distinct regions of the country where purchased from International Health Management Associates (IHMA; Schaumburg, Ill.). For experiments requiring planktonic cultures, the indicated organism was grown overnight in Luria-Bertani broth (LB; […] Biofilms were established by inoculating individual wells of flat-bottom polystyrene plates (Falcon, Corning Life Sciences; Durham, N.C.) with overnight cultures of the indicated organism into 200 ul of fresh LB to a final concentration of 1×10^7 CFU ml^-1. Plates were placed in a 37° C.-humidified incubator for 72 hours to allow static biofilm formation. Non-adherent cells were aspirated and biofilms were washed twice with phosphate-buffered saline prior to each experiment. […] After 24 hrs the remaining media and non-adherent cells were removed, biofilms were suspended in 0.8% NaCl and plated to quantify surviving bacteria. […] Biofilms were treated in increasing increments ranging from 0 to 64×MIC.

S. aureus = assay: Fractional inhibitory concentration, checkerboard MIC; format: cell-based, Staphylococcus aureus; conditions: S. aureus UAMS-1
P. aeruginosa biofilm = test system: P. aeruginosa biofilm; design: key: Killing (+) of established biofilms; conditions: established biofilms; adenylate kinase reporter; Blanchard et al., 2016; cited from earlier work
S. aureus UAMS-1 = assay: Selleck library screen in presence of sub-inhibitory polymyxin B/trimethoprim; format: cell-based, Staphylococcus aureus; design: key: Growth (+); no growth (−); conditions: for S. aureus growth, 5 μM: drug 5 μM in presence of 1.2 μg ml^−1 polymyxin B/trimethoprim; for S. aureus growth, 50 μM: drug 50 μM in presence of 1.2 μg ml^−1 polymyxin B/trimethoprim
Method: (§4) To identify agents that potentiate the antimicrobial activity of polymyxin B/trimethoprim we first determined the highest concentration of the polymyxin B/trimethoprim combination that allowed growth of P. aeruginosa strain PAO1 and S. aureus strain UAMS-1.
(§5) For Selleck library screening, individual wells of 96-well microtiter plates containing 88 μl of fresh media were inoculated with approximately 10^5 CFUs of P. aeruginosa strain PAO1 or S. aureus UAMS-1. Next, 2 μl of polymyxin B/trimethoprim was added to a final concentration of 0.2 μg ml^−1 or 1.25 μg ml^−1 for PA01 and UAMS-1, respectively. Library members were then added at either 5 μM or 50 μM final concentration. Plates were incubated at 37° C. for 16 hours and hits were identified as wells with no visible growth.
To do so, 10^5 CFUs of S. aureus strain UAMS-1 were inoculated in individual wells of a microtiter plate supplemented with 1.2 μg ml^−1 of polymyxin B/trimethoprim, (0.25×MIC). Library members were added at low (5 μM) or high (50 μM) concentrations and then scored for agents that inhibited growth following overnight incubation. Such agents were expected to represent compounds that display antimicrobial activity on their own and/or that potentiate the antimicrobial activity of polymyxin B/trimethoprim.

P. aeruginosa PAO1 = assay: as above; format: cell-based, Pseudomonas aeruginosa; design: key: Growth (+); no growth (−); conditions: for P. aeruginosa growth, 5 μM: drug 5 μM in presence of 0.2 μg ml^−1 polymyxin B/trimethoprim; for P. aeruginosa growth, 50 μM: drug 50 μM in presence of 0.2 μg ml^−1 polymyxin B/trimethoprim
Method: as §4
as §5, with “growth. […]” for “growth.”

P. aeruginosa [5] = assay: Fractional inhibitory concentration, checkerboard MIC; format: cell-based, Pseudomonas aeruginosa

COc1c(N2CCNC(C)C2)c(F)cc2c(=O)c(C(=O)O)cn(C3CC3)c12 (centres unmarked) [gatifloxacin]
isolates displaying resistance (MRSA keratitis isolates): ~45.9%

COc1c(N2C[C@@H]3CCCN[C@@H]3C2)c(F)cc2c(=O)c(C(=O)O)cn(C3CC3)c12 [Moxifloxacin, moxifloxacin]
start of outgrowth of treated culture (S. aureus strain UAMS-1): 26 h
resistance of recovered cells on MIC retest [1]: 2 ×MIC
time until growth of treated culture ([1]; P. aeruginosa, 1×MIC, laser microbial growth monitor over 40 hours): approximately 22 hours
MIC (P. aeruginosa [2]; P. aeruginosa ocular isolate RW01 (cornea)): 0.25 µg/mL
MIC (P. aeruginosa [2]; P. aeruginosa ocular isolate RW02 (cornea)): 0.25 µg/mL
MIC (P. aeruginosa [2]; P. aeruginosa ocular isolate RW03 (cornea)): 0.25 µg/mL
MIC (P. aeruginosa [2]; P. aeruginosa ocular isolate RW04 (conjunctiva)): 0.25 µg/mL
MIC (P. aeruginosa [2]; P. aeruginosa ocular isolate RW05 (cornea)): 0.125 µg/mL
MIC (P. aeruginosa [2]; P. aeruginosa ocular isolate RW06 (cornea)): 0.5 µg/mL
MIC (P. aeruginosa [2]; P. aeruginosa ocular isolate RW07 (cornea)): 0.125 µg/mL
reduction in CFU at hour 4 [3]: 5 log
reduction in biofilm-associated CFU [4]: 4 log

N[C@@H]1CCCCN(c2c(F)cc3c(=O)c(C(=O)O)cn(C4CC4)c3c2Cl)C1 [Besifloxacin, besifloxacin]
MIC in combination (S. aureus; PT combined with besifloxacin): 0.06 µg/mL
MIC (S. aureus; Staphylococcus aureus): 0.12 µg/mL
P. aeruginosa biofilm AK Signal (P. aeruginosa biofilm): +
S. aureus growth, 5 μM (S. aureus UAMS-1): −
S. aureus growth, 50 μM (S. aureus UAMS-1): −
P. aeruginosa growth, 5 μM (P. aeruginosa PAO1): −
P. aeruginosa growth, 50 μM (P. aeruginosa PAO1): −
MIC in combination (P. aeruginosa [5]; P. aeruginosa PAO1, PT combined with besifloxacin): 0.78 µg/mL
MIC (P. aeruginosa [5]; Pseudomonas aeruginosa, PAO1, P. aeruginosa PAO1): 1.56 µg/mL

CO[C@H]1/C=C/O[C@@]2(C)Oc3c(C)c(O)c4c(c3C2=O)C2=NC3(CCN(CC(C)C)CC3)NC2=C(NC(=O)/C(C)=C\C=C\[C@H](C)[C@H](O)[C@@H](C)[C@@H](O)[C@@H](C)[C@H](OC(C)=O)[C@@H]1C)C4=O [Rifabutin, rifabutin]
P. aeruginosa biofilm AK Signal (P. aeruginosa biofilm): +
S. aureus growth, 5 μM (S. aureus UAMS-1): −
S. aureus growth, 50 μM (S. aureus UAMS-1): −
P. aeruginosa growth, 5 μM (P. aeruginosa PAO1): −
P. aeruginosa growth, 50 μM (P. aeruginosa PAO1): −

C[C@@H]1CN(c2c(F)c(N)c3c(=O)c(C(=O)O)cn(C4CC4)c3c2F)C[C@H](C)N1 [Sparfloxacin, sparfloxacin]
P. aeruginosa biofilm AK Signal (P. aeruginosa biofilm): +
S. aureus growth, 5 μM (S. aureus UAMS-1): −
S. aureus growth, 50 μM (S. aureus UAMS-1): −
P. aeruginosa growth, 5 μM (P. aeruginosa PAO1): −
P. aeruginosa growth, 50 μM (P. aeruginosa PAO1): −

CN1C[C@@H]2C[C@H]1CN2c1cc2c(cc1F)c(=O)c(C(=O)O)cn2C1CC1 [Danofloxacin, danofloxacin]
P. aeruginosa biofilm AK Signal (P. aeruginosa biofilm): +
S. aureus growth, 5 μM (S. aureus UAMS-1): −
S. aureus growth, 50 μM (S. aureus UAMS-1): −
P. aeruginosa growth, 5 μM (P. aeruginosa PAO1): −
P. aeruginosa growth, 50 μM (P. aeruginosa PAO1): −

COc1cc(Cc2cnc(N)nc2N)cc(OC)c1OC [trimethoprim]
isolates displaying resistance (MRSA keratitis isolates): 11.5%

Cc1cc(NS(=O)(=O)c2ccc(N)cc2)no1 [sulfamethoxazole]
isolates displaying resistance (MRSA keratitis isolates): 5.7%

CO[C@H]1/C=C/O[C@@]2(C)Oc3c(C)c(O)c4c(O)c(c(/C=N/N5CCN(C6CCCC6)CC5)c(O)c4c3C2=O)NC(=O)/C(C)=C\C=C\[C@H](C)[C@H](O)[C@@H](C)[C@@H](O)[C@@H](C)[C@H](OC(C)=O)[C@@H]1C [Rifapentine, rifapentine]
P. aeruginosa biofilm AK Signal (P. aeruginosa biofilm): +
S. aureus growth, 5 μM (S. aureus UAMS-1): −
S. aureus growth, 50 μM (S. aureus UAMS-1): −
P. aeruginosa growth, 5 μM (P. aeruginosa PAO1): −
P. aeruginosa growth, 50 μM (P. aeruginosa PAO1): −
